Test results as given in patent US9315517B2, “Imidazol-piperidinyl derivatives as modulators of kinase activity” (Merck Patent GmbH, priority 2012, dated 2016).

How the values were obtained:
His-AKT (Full Length) = target: T1, His-AKT (Full Length) (Homo sapiens, UniProt P31749); experiment: AKT enzyme assay; assay type: biochemical; conditions: enzyme inhibition; 160 uM ATP, 90 min at 25° C., Caliper mobility shift
T1 construct: 0.1 ng/μl His-AKT (Full Length); His; purchased Invitrogen P2999
Method: (§1) The IC50 values reported for the compounds in the Experimental section were derived from the following protocol for the p70S6K and AKT enzyme assays.
A TTP Mosquito liquid handling instrument was used to place 125 nl of the appropriate concentration of inhibitor in 100% DMSO (for a dose response curve calculation) into each well of a 384-well plate. To this reaction components were added to a final volume of 12.5 μl: • 0.1 ng/μl His-AKT (Full Length), (Invitrogen, Part # P2999, Lot # 641228C). • 160 uM ATP (Fluke, 02055) • 1 mM DTT (Sigma, D0632) • 1 mM MgCl2 (Sigma, M1028) • 1 μM substrate peptide (sequence FITC-AHA-GRPRTSSFAEG-NH2), synthesized by Tufts Peptide Synthesis service. • 100 mM HEPES pH 7.5 (Calbiochem, 391338) • 0.015% Brij-35 (Sigma, B4184)
The reaction was incubated for 90 min at 25° C., and then stopped by the addition of 70 μl of Stop buffer (100 mM HEPES pH 7.5, 0.015% Brij-35, 10 mM EDTA (Sigma, E7889)).
The plate was read on a Caliper LC 3000 in an Off-Chip mobility shift assay format, using the following parameters for a 12-sipper chip: screening pressure −2.3 psi, upstream voltage −500, and downstream voltage −3000. These conditions caused unphosphorylated substrate and phosphorylated product peptide to resolve as separate peaks allowing direct measurement of percentage of conversion of substrate to product. The percent conversion was plotted against concentration of inhibitor to produce a sigmoidal dose response curve, from which an IC50 was calculated.

[1] = target: T2, P70S6K (T412E mutant, Millipore) (Homo sapiens, UniProt P23443, T412E); experiment: P70S6K enzyme assay; assay type: biochemical; conditions: enzyme inhibition; 24 μM ATP, 90 min at 25° C., Caliper mobility shift
T2 construct: purchased Millipore
Method: as §1
P70S6K inhibitor compounds were diluted and plated in 96 well plates. A reaction mixture including the following components was then added to the compound plate to initiate the enzyme reaction; P70S6K (3 nM, T412E mutant, Millipore) was mixed with 24 μM ATP in an assay buffer containing 100 mM Hepes (pH 7.5), 5 mM MgCl2, 1 mM DTT, 0.015% Brij and 1 μM of the substrate peptide FITC-AHA-AKRRRLSSLRA-OH (derived from the S6 ribosomal protein sequence, FITC=fluorescein isothiocyanate, AHA=6-aminohexanoic acid). The reaction was incubated for 90 min at 25° C., before the addition of 10 mM EDTA to stop the reaction. The proportion of substrate and product (phosphorylated) peptide was analysed on a Caliper Life Sciences Lab Chip 3000, using a pressure of −1.4 psi, and upstream and downstream voltages of −3000 and −700 respectively. Product peaks were resolved before substrate peaks on the resulting chromatograms.

T1 sequence (P31749 whole entry): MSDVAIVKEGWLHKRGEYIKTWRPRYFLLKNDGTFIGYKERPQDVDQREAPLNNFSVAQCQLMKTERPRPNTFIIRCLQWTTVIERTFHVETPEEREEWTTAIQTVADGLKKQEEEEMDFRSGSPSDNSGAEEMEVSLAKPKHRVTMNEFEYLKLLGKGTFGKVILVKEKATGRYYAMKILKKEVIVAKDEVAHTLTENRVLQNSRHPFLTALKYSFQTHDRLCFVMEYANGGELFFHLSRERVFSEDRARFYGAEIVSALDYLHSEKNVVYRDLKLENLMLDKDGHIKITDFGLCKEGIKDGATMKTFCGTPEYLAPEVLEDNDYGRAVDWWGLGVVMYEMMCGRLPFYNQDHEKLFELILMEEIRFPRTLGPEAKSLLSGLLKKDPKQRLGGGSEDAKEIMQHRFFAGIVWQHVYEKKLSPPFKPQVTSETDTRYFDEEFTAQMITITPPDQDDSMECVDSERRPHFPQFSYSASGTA
T2 sequence (P23443 whole entry T412E): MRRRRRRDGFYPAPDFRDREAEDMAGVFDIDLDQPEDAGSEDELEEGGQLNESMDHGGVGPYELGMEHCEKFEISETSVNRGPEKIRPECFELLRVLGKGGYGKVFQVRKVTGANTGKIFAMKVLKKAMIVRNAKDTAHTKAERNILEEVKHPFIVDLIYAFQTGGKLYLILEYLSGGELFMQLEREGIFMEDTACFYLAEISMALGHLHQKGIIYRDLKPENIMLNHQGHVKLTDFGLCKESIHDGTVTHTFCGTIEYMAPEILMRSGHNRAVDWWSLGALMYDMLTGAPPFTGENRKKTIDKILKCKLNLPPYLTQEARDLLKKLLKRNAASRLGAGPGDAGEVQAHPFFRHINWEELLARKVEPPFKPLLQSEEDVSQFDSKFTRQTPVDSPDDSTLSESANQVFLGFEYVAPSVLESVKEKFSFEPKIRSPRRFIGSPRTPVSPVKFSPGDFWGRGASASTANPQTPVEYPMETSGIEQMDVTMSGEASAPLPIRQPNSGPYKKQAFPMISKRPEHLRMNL

| Structure (SMILES) | IC50 (His-AKT (Full Length)) | IC50 [1] |
| --- | --- | --- |
| Fc1ccc(-c2cn(CCN3CCC3)c(C3CCN(c4ncnc5c4OCCN5)CC3)n2)cc1C(F)(F)F [Compound A1, 4-(4-(1-(2-(azetidin-1-yl)ethyl)-4-(4-fluoro-3-(trifluoromethyl)phenyl)-1H-imidazol-2-yl)piperidin-1-yl)-7,8-dihydro-6H-pyrimido[5,4-b][1,4]oxazine] | < 25 nM | < 25 nM |
| FC(F)(F)c1cc(-c2cn(CCN3CCC3)c(C3CCN(c4ncnc5c4OCCN5)CC3)n2)ccn1 [Compound A2, 4-(4-(1-(2-(azetidin-1-yl)ethyl)-4-(2-(trifluoromethyl)pyridin-4-yl)-1H-imidazol-2-yl)piperidin-1-yl)-7,8-dihydro-6H-pyrimido[5,4-b][1,4]oxazine] | 26 to 100 nM | < 25 nM |
| CN(C)CCn1cc(-c2ccc(F)c(C(F)(F)F)c2)nc1C1CCN(c2ncnc3c2CCN3)CC1 [Compound A3, 2-(2-(1-(6,7-dihydro-5H-pyrrolo[2,3-d]pyrimidin-4-yl)piperidin-4-yl)-4-(4-fluoro-3-(trifluoromethyl)phenyl)-1H-imidazol-1-yl)-N,N-dimethylethanamine] | < 25 nM | < 25 nM |
| CN(C)CCn1cc(-c2ccc(F)c(C(F)(F)F)c2)nc1C1CCN(c2ccnc3c2CCCN3)CC1 [Compound A5, 2-(4-(4-fluoro-3-(trifluoromethyl)phenyl)-2-(1-(5,6,7,8-tetrahydro-1,8-naphthyridin-4-yl)piperidin-4-yl)-1H-imidazol-1-yl)-N,N-dimethylethanamine] | 26 to 100 nM | < 25 nM |
| CN(C)CCn1cc(-c2ccc(F)c(C(F)(F)F)c2)nc1C1CCN(c2ncnc3c2OCCN3)CC1 [Compound A6, {2-[2-[1-(7,8-Dihydro-6H-pyrimido[5,4-b][1,4]oxazin-4-yl)-piperidin-4-yl]-4-(4-fluoro-3-trifluoromethyl-phenyl)-imidazol-1-yl]-ethyl}-dimethylamine] | < 25 nM | < 25 nM |
| Cc1cc(-c2cn(CCN(C)C)c(C3CCN(c4ncnc5c4OCCN5)CC3)n2)ccc1F [Compound A7, {2-[2-[1-(7,8-Dihydro-6H-pyrimido[5,4-b][1,4]oxazin-4-yl)-piperidin-4-yl]-4-(4-fluoro-3-methyl-phenyl)-imidazol-1-yl]-ethyl}-dimethylamine] | 26 to 100 nM | < 25 nM |
| COc1cc(-c2cn(CCN(C)C)c(C3CCN(c4ncnc5c4OCCN5)CC3)n2)ccc1F [Compound A8, {2-[2-[1-(7,8-Dihydro-6H-pyrimido[5,4-b][1,4]oxazin-4-yl)-piperidin-4-yl]-4-(4-fluoro-3-methoxy-phenyl)-imidazol-1-yl]-ethyl}-dimethylamine] | < 25 nM | < 25 nM |
| CN(C)CCn1cc(-c2ccc(F)c(Cl)c2)nc1C1CCN(c2ncnc3c2OCCN3)CC1 [Compound A9, (2-{4-(3-Chloro-4-fluoro-phenyl)-2-[1-(7,8-dihydro-6H-pyrimido[5,4-b][1,4]oxazin-4-yl)-piperidin-4-yl]-imidazol-1-yl}-ethyl)-dimethylamine] | < 25 nM | < 25 nM |
| CN(C)CCn1cc(-c2ccnc(C(F)(F)F)c2)nc1C1CCN(c2ncnc3c2OCCN3)CC1 [Compound A10, {2-[2-[1-(7,8-Dihydro-6H-pyrimido[5,4-b][1,4]oxazin-4-yl)-piperidin-4-yl]-4-(2-trifluoromethyl-pyridin-4-yl)-imidazol-1-yl]-ethyl}-dimethylamine] | 26 to 100 nM | < 25 nM |

The remaining lines, values ahead:

| IC50 (His-AKT (Full Length)) | IC50 [1] | Structure (SMILES) |
| --- | --- | --- |
| < 25 nM | < 25 nM | Cc1cc(-c2cn(CCN3CCC3)c(C3CCN(c4ncnc5c4OCCN5)CC3)n2)ccc1F [Compound A11, 4-{4-[1-(2-Azetidin-1-yl-ethyl)-4-(4-fluoro-3-methyl-phenyl)-1H-imidazol-2-yl]-piperidin-1-yl}-7,8-dihydro-6H-pyrimido[5,4-b][1,4]oxazine] |
| < 25 nM | < 25 nM | Fc1ccc(-c2cn(CCN3CCC3)c(C3CCN(c4ncnc5c4OCCN5)CC3)n2)cc1Cl [Compound A13, 4-{4-[1-(2-Azetidin-1-yl-ethyl)-4-(3-chloro-4-fluoro-phenyl)-1H-imidazol-2-yl]-piperidin-1-yl}-7,8-dihydro-6H-pyrimido[5,4-b][1,4]oxazine] |
| 26 to 100 nM | < 25 nM | CN(C)CCn1cc(-c2ccc(F)c(C(F)(F)F)c2)nc1C1CCN(c2ncnc3c2CCC3)CC1 [Compound A14, {2-[2-[1-(6,7-Dihydro-5H-cyclopentapyrimidin-4-yl)-piperidin-4-yl]-4-(4-fluoro-3-trifluoromethyl-phenyl)-imidazol-1-yl]-ethyl}-dimethylamine] |
| 101 to 500 nM | < 25 nM | Cc1cc(-c2cn(CCN(C)C)c(C3CCN(c4ncnc5c4CCC5)CC3)n2)ccc1F [Compound A15, {2-[2-[1-(6,7-Dihydro-5H-cyclopentapyrimidin-4-yl)-piperidin-4-yl]-4-(4-fluoro-3-methyl-phenyl)-imidazol-1-yl]-ethyl}-dimethylamine] |
| 26 to 100 nM | < 25 nM | COc1cc(-c2cn(CCN(C)C)c(C3CCN(c4ncnc5c4CCC5)CC3)n2)ccc1F [Compound A16, {2-[2-[1-(6,7-Dihydro-5H-cyclopentapyrimidin-4-yl)-piperidin-4-yl]-4-(4-fluoro-3-methoxy-phenyl)-imidazol-1-yl]-ethyl}-dimethylamine] |
| 26 to 100 nM | < 25 nM | CN(C)CCn1cc(-c2ccc(F)c(Cl)c2)nc1C1CCN(c2ncnc3c2CCC3)CC1 [Compound A17, (2-{4-(3-Chloro-4-fluoro-phenyl)-2-[1-(6,7-dihydro-5H-cyclopentapyrimidin-4-yl)-piperidin-4-yl]-imidazol-1-yl}-ethyl)-dimethylamine] |
| 101 to 500 nM | 26 to 100 nM | CN(C)CCn1cc(-c2ccnc(C(F)(F)F)c2)nc1C1CCN(c2ncnc3c2CCC3)CC1 [Compound A18, {2-[2-[1-(6,7-Dihydro-5H-cyclopentapyrimidin-4-yl)-piperidin-4-yl]-4-(2-trifluoromethyl-pyridin-4-yl)-imidazol-1-yl]-ethyl}-dimethylamine] |
| < 25 nM | < 25 nM | Fc1ccc(-c2cn(CCN3CCC3)c(C3CCN(c4ncnc5c4CCC5)CC3)n2)cc1Cl [Compound A19, 4-{4-[1-(2-Azetidin-1-yl-ethyl)-4-(3-chloro-4-fluoro-phenyl)-1H-imidazol-2-yl]-piperidin-1-yl}-6,7-dihydro-5H-cyclopentapyrimidine] |
| < 25 nM | < 25 nM | Fc1ccc(-c2cn(CCN3CCC3)c(C3CCN(c4ncnc5c4CCC5)CC3)n2)cc1C(F)(F)F [Compound A20, 4-{4-[1-(2-Azetidin-1-yl-ethyl)-4-(4-fluoro-3-trifluoromethyl-phenyl)-1H-imidazol-2-yl]-piperidin-1-yl}-6,7-dihydro-5H-cyclopentapyrimidine] |
| < 25 nM | < 25 nM | Cc1cc(-c2cn(CCN3CCC3)c(C3CCN(c4ncnc5c4CCC5)CC3)n2)ccc1F [Compound A21, 4-{4-[1-(2-Azetidin-1-yl-ethyl)-4-(4-fluoro-3-methyl-phenyl)-1H-imidazol-2-yl]-piperidin-1-yl}-6,7-dihydro-5H-cyclopentapyrimidine] |
| < 25 nM | < 25 nM | COc1cc(-c2cn(CCN3CCC3)c(C3CCN(c4ncnc5c4CCC5)CC3)n2)ccc1F [Compound A22, 4-{4-[1-(2-Azetidin-1-yl-ethyl)-4-(4-fluoro-3-methoxy-phenyl)-1H-imidazol-2-yl]-piperidin-1-yl}-6,7-dihydro-5H-cyclopentapyrimidine] |
| 26 to 100 nM | < 25 nM | FC(F)(F)c1cc(-c2cn(CCN3CCC3)c(C3CCN(c4ncnc5c4CCC5)CC3)n2)ccn1 [Compound A23, 4-{4-[1-(2-Azetidin-1-yl-ethyl)-4-(2-trifluoromethyl-pyridin-4-yl)-1H-imidazol-2-yl]-piperidin-1-yl}-6,7-dihydro-5H-cyclopentapyrimidine] |
| < 25 nM | < 25 nM | Cc1cc(-c2cn(CCN(C)C)c(C3CCN(c4ncnc5c4CCN5)CC3)n2)ccc1F [Compound A24, {2-[2-[1-(6,7-Dihydro-5H-pyrrolo[2,3-d]pyrimidin-4-yl)-piperidin-4-yl]-4-(4-fluoro-3-methyl-phenyl)-imidazol-1-yl]-ethyl}-dimethylamine] |
